Data as given in patent publication US9758477B2, “Sulfamoylbenzamide derivatives as antiviral agents against HBV infection” (priority 2011, dated 2017).

Key:
[1] = system: HBV mRNA; assay: Analysis of HBV mRNA by Northern blot in AML12HBV10 cells; type: cell-based, Hepatitis B virus (HBV); details: 2 days, FIG. 3 panel A
Protocol: (§1) To obtain mechanistic insight of the compounds of present invention against HBV, AML12HBV10 cells cultured in the 12-well plates were treated with a series of concentrations of DVR-1, DVR-56 or DVR-23 for two days in the absence of tetracycline (Guo et al., 2007). As positive controls, the cells were also treated with Bay41-4109 (5 μM) or AT-61 (25 μM), the known HBV nucleocapsid assembly effectors that either bind to HBV core protein dimmer to misdirect its interaction and prevent capsid formation (Bay41-4109) (Deres et al., 2003: Stray and Zlotnick, 2006), or interact with a core assembly intermediate and promote the formation of empty capsids (AT-61) (Feld et al., 2007; Katen et al., King et al., 1998). The amounts of intracellular viral mRNA, encapsidated pgRNA, capsids and nucleocapsid-associated HBV DNA were analyzed with the methods detailed below.
Procedure for analysis of HBV mRNA: Upon the completion of treatment, total cellular RNA was extracted with TRIzol reagents (Invitrogen). Five micrograms of total RNA was resolved in 1.5% agarose gel containing 2.2 M formaldehyde and transferred onto Hybond-XL membrane in 20×SSC buffer. The amounts of HBV mRNA were determined by Northern blot hybridization with an alpha-^32P-UTP labeled riboprobe specific for plus strand of HBV genome.

[2] = system: encapsidated pgRNA; assay: Encapsidated pgRNA by Northern blot in AML12HBV10 cells; type: cell-based, Hepatitis B virus (HBV); details: 2 days, FIG. 3 panel C, Bay41-4109 5 μM, AT-61 25 μM
Protocol: as §1
Determination of encapsidated pgRNA: AML12HBV10 cells were lysed by addition of 600 μl of lysis buffer (50 mM Tris-HCl [pH 7.5], 1 mM EDTA, 150 mM NaCl, 1% NP-40) into each well of 12-well plates. The nuclei were removed by centrifugation at 5,000 g for 10 minutes. One-half of the sample was mixed with 6 U of micrococcal nuclease (Pharmacia) and 15 μl of 100 mM CaCl2 and incubated for 15 minutes at 37° C. to digest free nucleic acids. The reaction was stopped with 6 μl of 0.5 M EDTA, and capsids were precipitated by adding 125 μl of 35% polyethylene glycol 8000 in 1.75 M NaCl to the reaction and incubating in ice for 30 minutes, followed by centrifugation at 6,000 g for 10 minutes at 4° C. Pellets were re-suspended in 50 μl of TNE buffer (10 mM Tris-HCl [pH 8], 100 mM NaCl, 1 mM EDTA), pgRNA was extracted by the addition of 1 ml of Trizol reagent. The encapsidated pgRNA were electrophoresed through a 2.2 M formaldehyde-1% agarose gel, transferred to a nylon membrane, and immobilized by UV cross-linking (Stratagene). Hybridization was performed with an alpha-^32P-UTP labeled riboprobe specific for plus strand of HBV genome.

CCC(C)NS(=O)(=O)c1ccc(F)c(C(=O)Nc2ccc(F)c(F)c2)c1 (stereo not shown) [DVR-23, 5-sec-butylsulfamoyl-N-(3,4-difluoro-phenyl)-2-fluoro-benzamide]
amount of viral mRNA [1]: did not affect | level of encapsidated pgRNA [2]: dose-dependently reduced

O=C(Nc1ccc(F)c(F)c1)c1cc(S(=O)(=O)NC2CCCC2)ccc1F [DVR-56, 5-cyclopentylsulfamoyl-N-(3,4-difluoro-phenyl)-2-fluoro-benzamide]
amount of viral mRNA [1]: did not affect | level of encapsidated pgRNA [2]: dose-dependently reduced
